According to PubChem BioAssay (NCI):
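Method: 48-hour compound exposure of cells in 96-well plates, five concentrations, linear interpolation of endpoints. GI50 = concentration required for 50% inhibition of growth. Definition used: TGI = concentration required for complete inhibition of growth.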

Key:
Experiment in all cases: growth of human tumour cells (NCI), 48 h
HCT-15 colon = tested on: HCT-15 colon
PC-3 prostate = tested on: PC-3 prostate
HS 578T breast = tested on: HS 578T breast
OVCAR-8 ovarian = tested on: OVCAR-8 ovarian
HCT-116 colon = tested on: HCT-116 colon
SK-MEL-28 melanoma = tested on: SK-MEL-28 melanoma
COLO 205 colon = tested on: COLO 205 colon
BT-549 breast = tested on: BT-549 breast
SW-620 colon = tested on: SW-620 colon
NCI/ADR-RES ovarian = tested on: NCI/ADR-RES ovarian
OVCAR-5 ovarian = tested on: OVCAR-5 ovarian
UACC-257 melanoma = tested on: UACC-257 melanoma
786-0 renal = tested on: 786-0 renal
NCI-H226 lung = tested on: NCI-H226 lung
TK-10 renal = tested on: TK-10 renal
DU-145 prostate = tested on: DU-145 prostate
A498 renal = tested on: A498 renal
NCI-H23 lung = tested on: NCI-H23 lung
U251 CNS = tested on: U251 CNS
NCI-H460 lung = tested on: NCI-H460 lung
MCF7 breast = tested on: MCF7 breast
MALME-3M melanoma = tested on: MALME-3M melanoma
CAKI-1 renal = tested on: CAKI-1 renal
K-562 leukemia = tested on: K-562 leukemia
SK-OV-3 ovarian = tested on: SK-OV-3 ovarian
OVCAR-3 ovarian = tested on: OVCAR-3 ovarian
UACC-62 melanoma = tested on: UACC-62 melanoma
HOP-92 NSCLC = tested on: HOP-92 NSCLC
CCRF-CEM leukemia = tested on: CCRF-CEM leukemia
SF-268 CNS = tested on: SF-268 CNS
SF-539 CNS = tested on: SF-539 CNS
IGROV1 ovarian = tested on: IGROV1 ovarian
EKVX NSCLC = tested on: EKVX NSCLC
SN12C renal = tested on: SN12C renal
NCI-H522 lung = tested on: NCI-H522 lung
MDA-MB-468 breast = tested on: MDA-MB-468 breast
SK-MEL-5 melanoma = tested on: SK-MEL-5 melanoma
LOX IMVI melanoma = tested on: LOX IMVI melanoma
HT29 colon = tested on: HT29 colon
RPMI-8226 leukemia = tested on: RPMI-8226 leukemia
SF-295 CNS = tested on: SF-295 CNS
OVCAR-4 ovarian = tested on: OVCAR-4 ovarian
MOLT-4 leukemia = tested on: MOLT-4 leukemia
HOP-62 NSCLC = tested on: HOP-62 NSCLC
T-47D breast = tested on: T-47D breast
RXF 393 renal = tested on: RXF 393 renal
MDA-MB-435 = tested on: MDA-MB-435
HL-60(TB) leukemia = tested on: HL-60(TB) leukemia
KM12 colon = tested on: KM12 colon
ACHN renal = tested on: ACHN renal
SNB-19 CNS = tested on: SNB-19 CNS
HCC-2998 colon = tested on: HCC-2998 colon
SR leukemia = tested on: SR leukemia
A549 NSCLC = tested on: A549 NSCLC
M14 melanoma = tested on: M14 melanoma

SMILES: O=C(Nc1nc2ccc([N+](=O)[O-])cc2s1)Nc1ccccc1F
- GI50 (HCT-15 colon): 4.93 µM
- TGI (HCT-15 colon): 33.9 µM
- GI50 (PC-3 prostate): 6.83 µM
- TGI (PC-3 prostate): 51 µM
- GI50 (HS 578T breast): 5.89 µM
- TGI (HS 578T breast): 59 µM
- GI50 (OVCAR-8 ovarian): 15.8 µM
- TGI (OVCAR-8 ovarian): 50.4 µM
- GI50 (HCT-116 colon): 9.97 µM
- TGI (HCT-116 colon): 39.8 µM
- GI50 (SK-MEL-28 melanoma): 5.79 µM
- TGI (SK-MEL-28 melanoma): 83.8 µM
- GI50 (COLO 205 colon): 15.1 µM
- TGI (COLO 205 colon): 30.4 µM
- GI50 (BT-549 breast): 11.9 µM
- TGI (BT-549 breast): 46.5 µM
- GI50 (SW-620 colon): 12.2 µM
- TGI (SW-620 colon): > 100 µM
- GI50 (NCI/ADR-RES ovarian): 7.98 µM
- TGI (NCI/ADR-RES ovarian): 32.4 µM
- GI50 (OVCAR-5 ovarian): 22 µM
- TGI (OVCAR-5 ovarian): 80.8 µM
- GI50 (UACC-257 melanoma): 6.08 µM
- TGI (UACC-257 melanoma): 36.9 µM
- GI50 (786-0 renal): 17.7 µM
- TGI (786-0 renal): > 100 µM
- GI50 (NCI-H226 lung): 13.4 µM
- TGI (NCI-H226 lung): > 100 µM
- GI50 (TK-10 renal): 8.78 µM
- TGI (TK-10 renal): 83 µM
- GI50 (DU-145 prostate): 7.11 µM
- TGI (DU-145 prostate): > 100 µM
- GI50 (A498 renal): 4.88 µM
- TGI (A498 renal): 36.7 µM
- GI50 (NCI-H23 lung): 3.6 µM
- TGI (NCI-H23 lung): 21.6 µM
- GI50 (U251 CNS): 7.41 µM
- TGI (U251 CNS): 35.7 µM
- GI50 (NCI-H460 lung): 4.66 µM
- TGI (NCI-H460 lung): 26.5 µM
- GI50 (MCF7 breast): 5.68 µM
- TGI (MCF7 breast): 35.3 µM
- GI50 (MALME-3M melanoma): 4.17 µM
- TGI (MALME-3M melanoma): 30.9 µM
- GI50 (CAKI-1 renal): 5.32 µM
- TGI (CAKI-1 renal): 73.2 µM
- GI50 (K-562 leukemia): 4.99 µM
- TGI (K-562 leukemia): 25 µM
- GI50 (SK-OV-3 ovarian): 5.9 µM
- TGI (SK-OV-3 ovarian): 46.1 µM
- GI50 (OVCAR-3 ovarian): 3.99 µM
- TGI (OVCAR-3 ovarian): 46.6 µM
- GI50 (UACC-62 melanoma): 3.77 µM
- TGI (UACC-62 melanoma): > 100 µM
- GI50 (HOP-92 NSCLC): 2830 nM
- TGI (HOP-92 NSCLC): 8.28 µM
- GI50 (CCRF-CEM leukemia): 5.42 µM
- TGI (CCRF-CEM leukemia): 47.9 µM
- GI50 (SF-268 CNS): 8.41 µM
- TGI (SF-268 CNS): > 100 µM
- GI50 (SF-539 CNS): 8.33 µM
- TGI (SF-539 CNS): 26.9 µM
- GI50 (IGROV1 ovarian): 4.57 µM
- TGI (IGROV1 ovarian): > 100 µM
- GI50 (EKVX NSCLC): 4.37 µM
- TGI (EKVX NSCLC): 55.5 µM
- GI50 (SN12C renal): 4.65 µM
- TGI (SN12C renal): 62.3 µM
- GI50 (NCI-H522 lung): 3.49 µM
- TGI (NCI-H522 lung): 22.6 µM
- GI50 (MDA-MB-468 breast): 3.2 µM
- TGI (MDA-MB-468 breast): 19.2 µM
- GI50 (SK-MEL-5 melanoma): 2640 nM
- TGI (SK-MEL-5 melanoma): 7.35 µM
- GI50 (LOX IMVI melanoma): 10.7 µM
- TGI (LOX IMVI melanoma): 58.8 µM
- GI50 (HT29 colon): 23.6 µM
- TGI (HT29 colon): > 100 µM
- GI50 (RPMI-8226 leukemia): 3.45 µM
- TGI (RPMI-8226 leukemia): 16.5 µM
- GI50 (SF-295 CNS): 11.4 µM
- TGI (SF-295 CNS): 32.1 µM
- GI50 (OVCAR-4 ovarian): 5.21 µM
- TGI (OVCAR-4 ovarian): > 100 µM
- GI50 (MOLT-4 leukemia): 3.77 µM
- TGI (MOLT-4 leukemia): 15.5 µM
- GI50 (HOP-62 NSCLC): 17.2 µM
- TGI (HOP-62 NSCLC): 56.3 µM
- GI50 (T-47D breast): 3.06 µM
- TGI (T-47D breast): 22.7 µM
- GI50 (RXF 393 renal): 13.3 µM
- TGI (RXF 393 renal): 47.3 µM
- GI50 (MDA-MB-435): 5.46 µM
- TGI (MDA-MB-435): > 100 µM
- GI50 (HL-60(TB) leukemia): 4.31 µM
- TGI (HL-60(TB) leukemia): 22 µM
- GI50 (KM12 colon): 5.33 µM
- TGI (KM12 colon): 52.8 µM
- GI50 (ACHN renal): 8.13 µM
- TGI (ACHN renal): 95.7 µM
- GI50 (SNB-19 CNS): 6.35 µM
- TGI (SNB-19 CNS): > 100 µM
- GI50 (HCC-2998 colon): 7.58 µM
- TGI (HCC-2998 colon): 34.1 µM
- GI50 (SR leukemia): 3.31 µM
- TGI (SR leukemia): 17.4 µM
- GI50 (A549 NSCLC): 7.4 µM
- TGI (A549 NSCLC): 28.5 µM
- GI50 (M14 melanoma): 19.1 µM
- TGI (M14 melanoma): > 100 µM
